From PubChem BioAssay (NCI)
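Test compounds were applied to cells in 96-well plates for 48 hours at 5 doses. TGI marks complete inhibition of growth.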 Where a SMILES comes first, the peptide text is derived from it. The star is where a group is joined. Pentanoyl = CCCCC(=O)*; Boc = CC(C)(C)OC(=O)*

Legend:
Assay in all cases: NCI-60 cell line screen, 48 h
[1] = tested on: HOP-92 NSCLC
[2] = tested on: HOP-62 NSCLC
[3] = tested on: MDA-MB-231 breast
[4] = tested on: ACHN renal
[5] = tested on: K-562 leukemia
[6] = tested on: TK-10 renal
[7] = tested on: MCF7 breast
[8] = tested on: SK-MEL-5 melanoma
[9] = tested on: SNB-75 CNS
[10] = tested on: OVCAR-5 ovarian
[11] = tested on: UACC-257 melanoma
[12] = tested on: NCI-H23 lung
[13] = tested on: HL-60(TB) leukemia
[14] = tested on: U251 CNS
[15] = tested on: T-47D breast
[16] = tested on: MOLT-4 leukemia
[17] = tested on: MDA-MB-435
[18] = tested on: NCI-H226 lung
[19] = tested on: SK-MEL-28 melanoma
[20] = tested on: UO-31 renal

SMILES | TGI [1] [µM] | TGI [2] [µM] | TGI [3] [µM] | TGI [4] [µM] | TGI [5] [µM] | TGI [6] [µM] | TGI [7] [µM] | TGI [8] [µM] | TGI [9] [µM] | TGI [10] [µM] | TGI [11] [µM] | TGI [12] [µM] | TGI [13] [µM] | TGI [14] [µM] | TGI [15] [µM] | TGI [16] [µM] | TGI [17] [µM] | TGI [18] [µM] | TGI [19] [µM] | TGI [20] [µM]
Cc1ccc2nc(-c3ccc(-n4c(C)nc(=O)c(-c5ccc(F)cc5)c4C)cc3)sc2c1 | 36.9 | 45.5 | 28.8 | 28.4 | 45.4 | 30.8 | 34.7 | 24.5 | 27.4 | 35.9 | 30.1 | 32.2 | 34.2 | 30.7 | 17.2 | 27.7 | 32.2 | 41.6 | 50.7 | 30.6
CC(=O)OC[C@@H]1[C@H]2CC[C@]3(C)[C@@H](OC(C)=O)CC[C@H]3[C@@H]2CC[C@H]1C1(C)SCCS1 | > 25 | > 25 | > 25 | > 25 | > 25 | > 25 | > 25 | > 25 | > 25 | > 25 | > 25 | > 25 | > 25 | > 25 | > 25 | > 25 | > 25 | > 25 | > 25 | > 25
CCOC(=O)CC1(O)CCCCC1(Sc1ccc(C)cc1)Sc1ccc(C)cc1 (stereo not given) | > 100 | > 100 | > 100 | > 100 | > 100 | > 100 | > 100 | > 100 | > 100 | > 100 | > 100 | > 100 | > 100 | > 100 | 85.3 | > 100 | > 100 | > 100 | > 100 | > 100
Cc1nn(C(=O)c2ccc(Cl)cc2)c2c1C(c1cccc([N+](=O)[O-])c1)SC(N)=N2 (stereo not given) | > 10 | > 10 | > 10 | > 10 | > 10 | > 10 | > 10 | > 10 | > 10 | > 10 | > 10 | > 10 | > 10 | > 10 | > 10 | > 10 | > 10 | > 10 | > 10 | –
CCOC(=O)C(NCc1ccc2c(c1)OCO2)(NC(=O)c1ccccc1)C(F)(F)F (stereo not given) | > 100 | > 100 | > 100 | > 100 | > 100 | > 100 | > 100 | > 100 | > 100 | > 100 | > 100 | > 100 | 82 | > 100 | > 100 | 50.8 | > 100 | > 100 | > 100 | > 100
COc1ccc(/C=C2\N=C3Sc4c(nc[nH]c4=O)N3C2=O)cc1 | > 100 | > 100 | > 100 | > 100 | > 100 | > 100 | > 100 | > 100 | > 100 | > 100 | > 100 | > 100 | > 100 | > 100 | > 100 | > 100 | > 100 | > 100 | > 100 | > 100
Cc1nc2ccccc2c(=O)n1NC(=O)c1ccc([N+](=O)[O-])cc1 | > 100 | > 100 | > 100 | > 100 | > 100 | > 100 | > 100 | > 100 | > 100 | > 100 | > 100 | > 100 | > 100 | > 100 | > 100 | > 100 | > 100 | > 100 | > 100 | > 100
CC(=O)Nc1ccc(CNc2cc(=O)n(C)c(=O)[nH]2)cc1 | > 100 | > 100 | > 100 | > 100 | > 100 | > 100 | > 100 | > 100 | > 100 | > 100 | > 100 | > 100 | > 100 | > 100 | > 100 | > 100 | > 100 | > 100 | > 100 | > 100
Nc1ccc(N=Nc2ccc(-c3ccc(O)cc3)cc2)c2ccc(S(=O)(=O)O)cc12 | > 100 | > 100 | > 100 | > 100 | > 100 | > 100 | > 100 | > 100 | > 100 | > 100 | > 100 | > 100 | > 100 | > 100 | > 100 | > 100 | > 100 | > 100 | > 100 | > 100
CCOC(=O)[C@H](O)[C@@H](O)C(=O)NCc1ccc(C(=O)c2ccccc2)cc1 | > 100 | > 100 | > 100 | > 100 | > 100 | > 100 | > 100 | > 100 | > 100 | > 100 | > 100 | > 100 | > 100 | > 100 | > 100 | > 100 | > 100 | > 100 | > 100 | > 100
O=C(O)[C@@H]1CCC(=O)N1C(c1ccc2c(c1)OCO2)c1ccc2c(c1)OCO2 | > 100 | > 100 | > 100 | > 100 | > 100 | > 100 | > 100 | > 100 | > 100 | > 100 | > 100 | > 100 | > 100 | > 100 | > 100 | > 100 | > 100 | > 100 | > 100 | > 100
CCCCC(=O)Oc1ccc(CC(NC(=O)OC(C)(C)C)C(=O)NC(C)C(=O)NC(Cc2ccccc2)C(=O)NCC(N)=O)cc1 (stereo not given) (Boc-Y(Pentanoyl)AFG-NH2; configuration not given here) | 99.4 | 50 | 41.6 | > 100 | > 100 | > 100 | 41.8 | > 100 | > 100 | 52 | 71.4 | > 100 | 61 | 40.6 | 79 | 54.2 | 45.1 | > 100 | 64.1 | > 100
CCOC(=O)C(C)(C(=O)OCC)/C(Cl)=C\Cl | > 100 | > 100 | > 100 | > 100 | > 100 | > 100 | > 100 | > 100 | > 100 | > 100 | > 100 | > 100 | > 100 | – | > 100 | > 100 | > 100 | > 100 | > 100 | > 100
COc1cc(C=C2N=C(c3ccccc3)N(n3c(-c4ccccc4)nc4ccccc4c3=O)C2=O)cc(OC)c1OC | 33.7 | 29.9 | 53.1 | 82.2 | > 100 | > 100 | 60.7 | 56.6 | 62.6 | > 100 | 43 | 56.6 | > 100 | – | 50.2 | > 100 | 55.3 | 49.4 | 35.5 | > 100
O=C(O)c1ccccc1CC1Cc2ccc3c(c2C1=O)CCC3 (stereo not given) | > 100 | > 100 | > 100 | > 100 | > 100 | > 100 | > 100 | > 100 | > 100 | > 100 | > 100 | > 100 | > 100 | > 100 | > 100 | > 100 | > 100 | > 100 | > 100 | > 100
Fc1ccc(OCc2nc3cc(C(F)(F)F)ccc3nc2-c2ccccc2)cc1 | > 100 | > 100 | > 100 | > 100 | > 59 | > 100 | > 100 | > 100 | > 100 | > 100 | > 100 | > 100 | > 89.1 | > 100 | > 100 | > 67.6 | > 100 | > 100 | > 100 | > 100
O=C(O)C1=C(C(=O)O)N(c2ccncc2)C(c2ccco2)=CC1c1ccccc1[N+](=O)[O-] (stereo not given) | 22.1 | 33.7 | 30.7 | 3.13 | > 100 | 17.6 | 10.1 | > 47.4 | 23.9 | 33.8 | 5.28 | 25.8 | 7.85 | 28 | 20.1 | 14.5 | > 56 | 40.2 | > 54.8 | 20.6
CCN(CC)CCCNc1nc(=O)[nH]c(C)c1C(=O)Nc1c2ccccc2nc2ccccc12 | 13.3 | > 100 | 51.3 | 57.4 | > 100 | > 100 | > 100 | 29 | 55.5 | > 100 | 54.5 | 42.8 | 60.9 | > 100 | 73.5 | > 100 | > 100 | 93.8 | > 100 | 32.3
O=C1c2ccccc2C(=O)c2c1ccc1nc3c(nc21)-c1c2ccccc2cc2cccc-3c12 | > 100 | > 91.6 | > 100 | > 57.6 | > 100 | > 100 | > 91.5 | > 100 | > 31.6 | > 100 | > 100 | > 100 | > 100 | > 100 | > 84.2 | > 100 | 38.6 | > 100 | > 100 | > 100
CCn1c(-c2ccc(F)cc2)nc2c1C(=O)c1ccccc1C2=O | > 100 | > 100 | > 100 | > 100 | > 100 | > 100 | > 100 | > 100 | > 100 | > 100 | > 100 | > 100 | > 100 | > 100 | > 100 | > 100 | > 100 | > 100 | > 100 | –
CC(=O)Nc1sc([N+](=O)[O-])cc1S(=O)(=O)c1ccc(Cl)cc1 | 12.7 | 3.99 | > 29.6 | 10.6 | > 100 | > 100 | 9.41 | 1.95 | 11.2 | > 100 | 16.8 | 14.1 | > 23.5 | > 35.5 | 12.2 | > 50.2 | > 53.3 | 21.9 | > 100 | 14.7
Cc1cccc2c(N)c3cccc(C(=O)NCC[N+](C)(C)Cc4sccc4[N+](=O)[O-])c3nc12 | > 100 | > 100 | 67.7 | 18.1 | > 100 | > 100 | 25.2 | > 100 | > 100 | 33.1 | > 100 | 30 | > 100 | > 100 | > 100 | > 100 | > 100 | 32 | > 100 | > 100
CN1C(=O)N/C(=C\c2ccc(S(=O)(=O)N/N=C\C(O)C(O)C(O)CO)cc2)C1=O (stereo not given) | > 100 | > 100 | > 100 | > 100 | > 100 | > 100 | > 100 | > 100 | > 100 | > 100 | > 100 | > 100 | > 100 | > 100 | > 100 | > 100 | > 100 | – | > 100 | > 100
